pIC50: −log10 of the molar value. Read-outs that look alike come from different tables or passages of the source. Ends that are not written are not given here.
Tests used:
[1] = target: α-glucosidase; design: method as in PMID 34445765; conditions: peptides hydrolyzed from food sources; cited from earlier work
Experimental: The peptides were tested for antidiabetic activity based on the capacity to inhibit 50% of […].

[2] = tested on: ACE; design: method as in 2 sources, one per row (each row's own in cited_ref): ref 27 = [27]; PMID 29533693; doi:10.1080/10408398.2018.1452182; 27. Yathisha U.G. Bhat I. Karunasagar I. Mamatha B.S. Antihypertensive Activity of Fish Protein Hydrolysates and Its Peptides Crit. Rev. Food Sci. Nutr. 2019 59 2363 2374 10.1080/10408398.2018.1452182 ||| ref 28 = [28]; PMID 31671730; doi:10.3390/md17110613; 28. Abachi S. Bazinet L. Beaulieu L. Antihypertensive and Angiotensin-i-Converting Enzyme (ACE)-Inhibitory Peptides from Fish as Potential Cardioprotective Compounds Mar. Drugs 2019 17 613 10.3390/md1; conditions: cited from earlier work
[3] = ark shell (Scapharca subcrenata) peptides, values converted to the same units; cited from earlier work
Text: In the ORAC assay, the values were 0.334 µmol TE/µmol of peptide for P1 and ...

[4] = design: method as in 2 sources, one per row (each row's own in cited_ref): ref 19 = [19]; doi:10.1016/j.procbio.2018.06.001; 19. Jin J. Ahn C. Je J. Puri Fi Cation and Characterization of Antioxidant Peptides from Enzymatically Hydrolyzed Ark Shell ( Scapharca subcrenata ) Process Biochem. 2018 72 170 176 10.1016/j.procbio. ||| ref 21 = [21]; PMID 26304349; doi:10.1016/j.foodchem.2015.07.015; 21. Zheng L. Zhao M. Xiao C. Zhao Q. Su G. Practical Problems When Using ABTS Assay to Assess the Radical-Scavenging Activity of Peptides: Importance of Controlling Reaction PH and Time Food Chem. 201; conditions: cited from earlier work; for ABTS antioxidant activity: ark shell (Scapharca subcrenata) peptides, values converted to the same units
[5] = target: α-glucosidase (Saccharomyces cerevisiae, UniProt P53341); assay: biochemical
Chain of α-glucosidase (Saccharomyces cerevisiae, UniProt P53341) (P53341 whole entry): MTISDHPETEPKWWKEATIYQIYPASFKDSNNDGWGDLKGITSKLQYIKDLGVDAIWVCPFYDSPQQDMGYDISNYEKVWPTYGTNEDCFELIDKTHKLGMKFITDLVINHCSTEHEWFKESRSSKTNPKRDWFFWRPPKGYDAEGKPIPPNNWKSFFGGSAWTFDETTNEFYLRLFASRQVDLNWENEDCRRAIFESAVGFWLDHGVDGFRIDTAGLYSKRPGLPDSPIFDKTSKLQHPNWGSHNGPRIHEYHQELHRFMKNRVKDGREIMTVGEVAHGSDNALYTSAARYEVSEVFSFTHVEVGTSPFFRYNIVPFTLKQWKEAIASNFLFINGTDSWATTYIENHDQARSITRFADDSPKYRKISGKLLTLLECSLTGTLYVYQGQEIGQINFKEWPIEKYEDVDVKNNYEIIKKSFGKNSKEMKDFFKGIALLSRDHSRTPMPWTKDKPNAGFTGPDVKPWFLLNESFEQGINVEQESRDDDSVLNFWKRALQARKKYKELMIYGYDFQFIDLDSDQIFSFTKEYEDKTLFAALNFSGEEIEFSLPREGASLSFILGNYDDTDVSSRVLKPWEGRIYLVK
Experimental: The α-glucosidase inhibitory activity was evaluated through the following method, outlined by Vilas-Boas et al. [42]. The assay was performed in a 96-well microplate (Stansted) and incubated at 25 °C for 5 min, and the absorbance was monitored at 405 nm with a microplate reader (Synergy H1, BioTek Instruments, Winooski, VT, USA). A negative control was performed, with 50 μL of a buffer solution that replaced the peptides. […] Each sample and control analysis was triplicated. The inhibition of α-glucosidase was quantified as the concentration required to inhibit 50% of the enzymatic activity (IC50). The IC50 values were determined using non-linear modelling of the data obtained.

[6] = peptides from fish protein hydrolysates

With TPSPR as the molecule, how does the pIC50 [1] read?
Its pIC50 is 4.40.

Which “ACE inhibition IC50” value ([2]; synthesized peptide before/after fragmentation in digestion) does the source give for IKPLNY here?
The value was 32 µg/mL.

What does the source list for MCLDSCLL [P1]?
ORAC antioxidant activity [3]: 0.334 µmol TE/µmol of peptide; ABTS antioxidant activity [4]: 0.678 µmol Trolox equivalents (TE)/µmol of peptide

For “TFPHGP [peptide from Syngnathus schlegeli protein hydrolysate]”, which “ACE inhibition IC50” value [2, 6] is on record?
Its value is 600 µg/mL.

With RVPSLM as the molecule, how does the pIC50 [1] read?
Its pIC50 is 4.64.

Which “ACE inhibition IC50” value [2, 6] does the source give for “HWTTQR [peptide from Syngnathus schlegeli protein hydrolysate]” here?
Its value is 1440 µg/mL.

With PAPPPPPP [HdPPP] as the molecule, how does the pIC50 ([5]; α-glucosidase IC50, 25 °C, 5 min, absorbance 405 nm, mean ± standard deviation, n = 3) read?
The pIC50 was 2.66.

What about the pIC50 ([5]; α-glucosidase IC50, same result in molar units) of the same molecule?
The pIC50 was 2.66.

Which ORAC antioxidant activity [3] does the source give for HPLDSLCL [P2] here?
Its ORAC antioxidant activity is 0.239 µmol TE/µmol of peptide.

And the ABTS antioxidant activity [4]?
Its ABTS antioxidant activity is 0.005 µmol TE/µmol of peptide.

With `N[C@@H](Cc1ccc(O)cc1)C(=O)O` [Tyr] as the molecule, how does the “ABTS radical scavenging value” ([4]; pH 6.0) read?
Its value is 2.89 µmol TE/µmol.

What about the “ABTS radical scavenging value” ([4]; pH 8.0) of the same molecule?
Its value is 6.55 µmol TE/µmol.

Reference: article PMC11857211, “Bioprospecting Bioactive Peptides in Halobatrachus didactylus Body Mucus: From In Silico Insights to Essential In Vitro Validation” (Marine Drugs, 2025)
